# Values of other authors as cited in patent US9533050B2, “Vaginal ring including meloxicam and an agent for modulating the release of the active principle, which can be used as a continuous-use contraceptive in women” (LABORATORIOS ANDROMACO S.A., priority 2011, dated 2017).
# Columns and labels:
# ovulation = details: women
# follicular rupture = details: 25 mg oral once daily for 9 days
# [1] = 15 mg tablets orally, older women
smiles,measurement,setting,value
"COc1ccc2c(c1)c(CC(=O)O)c(C)n2C(=O)c1ccc(Cl)cc1 [Indomethacin, indomethacin]",delay of ovulation,ovulation,2 to 12 days
Cc1cnc(NC(=O)C2=C(O)c3ccccc3S(=O)(=O)N2C)s1 [meloxicam],maximum plasma concentrations,"7.5 mg orally, tablets",1.05 µg/mL
same,time of maximum plasma concentration,"7.5 mg orally, tablets",4.9 h
same,plasma concentrations,[1],3200 ng/mL
same,time of plasma concentration,[1],6 h
CS(=O)(=O)c1ccc(C2=C(c3ccccc3)C(=O)OC2)cc1 [rofecoxib],inhibition of ovulation,follicular rupture,not sufficient to inhibit ovulation
same,women with delay in the late follicular rupture,follicular rupture,4 of the 6
